Earlier results on 2 molecules are cited in PMC6835763, “Influence of Short Cationic Lipopeptides with Fatty Acids of Different Chain Lengths on Bacterial Biofilms Formed on Polystyrene and Hydrogel Surfaces” (Pharmaceutics, 2019).

Holding throughout (conditions): cited from earlier work
In one series the test system is EC biofilm. An excerpt: (§1) They were ineffective against PM, which was difficult to eradicate with peptides (and antibiotics) in previously performed studies. PM can cause infections of the urinary tract, skin, subcutaneous tissue, and wounds. PM is known as a biofilm former, and an evident increase of PM resistance to broad-spectrum fluoroquinolones and cephalosporins has been observed. In the previous study, mature PM b ...

Another series relates to PA biofilm.
Excerpt: as §1

The next series concerns PM biofilm.
Excerpt: as §1

Another series deals with SA biofilms. On the set-up: method as in PMID 24779193.

Regarding neomycin, the “activity against EC biofilms” value with EC biofilm is on record as “rather weak activity”. Further, the “activity against PA biofilm” value with PA biofilm is given as “weak antibiofilm agents”. Besides, in the series with PM biofilm, the “susceptibility of mature PM biofilms” value is listed as “resistant”. Also, the “susceptibility of SA biofilms” value in the series with SA biofilms is given as “resistant”.
Consider `O=C(O)c1cn(C2CC2)c2cc(N3CCNCC3)c(F)cc2c1=O` [ciprofloxacin], for which the “effective concentration against EC biofilm” value in the series with EC biofilm is 1 µg/mL. Also, the “concentration eliminating PA biofilm” value in the series on PA biofilm (3-day-old structures) was 4 µg/mL. In the series on PM biofilm, the “susceptibility of mature PM biofilms” value is “resistant”. Moreover, the “susceptibility of SA biofilms” value in the series on SA biofilms is reported as “resistant”.
